Tests used:
Format in all cases: in vivo
Settings in all cases: after 13 d
[1] = system: giant foxtail (Setaria faberi, SETFA); experiment: Test A post-emergence, giant foxtail
Summary of the method: (§1)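 Plants sown in standard soil were grown 8 d in a glasshouse (24/16 °C day/night, 14 h light, 65% humidity), then sprayed with compound in acetone/water (50:50) with 0.5% Tween 20 at 15.625, 62.5 or 250 g/ha. Damage was scored after 13 d (0 = none, 100 = total).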

[2] = system: redroot pigweed (Amaranthus retroflexus, AMARE); experiment: Test A pre-emergence, redroot pigweed
Summary of the method: (§2)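 Each compound is applied pre-emergence at 15.625, 62.5 or 250 g/ha, one day after seeds are sown in standard soil. Plants are then grown in a glasshouse at 24/16° C. with 14 h light and 65% humidity, and injury is scored 0–100 at 13 d.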

[3] = system: barnyardgrass (Echinochloa crus-galli, ECHCG); experiment: Test A post-emergence, barnyardgrass
Summary of the method: as §1

[4] = system: barnyardgrass (Echinochloa crus-galli, ECHCG); experiment: Test A pre-emergence, barnyardgrass
Summary of the method: as §2

[5] = system: corn (Zea mays, ZEAMX); experiment: Test A pre-emergence, corn
Summary of the method: as §2

[6] = system: velvetleaf (Abutilon theophrasti, ABUTH); experiment: Test A pre-emergence, velvetleaf
Summary of the method: as §2

[7] = system: ivy-leaved morning glory (Ipomoea hederacea, IPOHE); experiment: Test A pre-emergence, ivy-leaved morning glory
Summary of the method: as §2

[8] = system: ivy-leaved morning glory (Ipomoea hederacea, IPOHE); experiment: Test A post-emergence, ivy-leaved morning glory
Summary of the method: as §1

[9] = system: giant foxtail (Setaria faberi, SETFA); experiment: Test A pre-emergence, giant foxtail
Summary of the method: as §2

[10] = system: redroot pigweed (Amaranthus retroflexus, AMARE); experiment: Test A post-emergence, redroot pigweed
Summary of the method: as §1

[11] = system: velvetleaf (Abutilon theophrasti, ABUTH); experiment: Test A post-emergence, velvetleaf
Summary of the method: as §1

[12] = system: corn (Zea mays, ZEAMX); experiment: Test A post-emergence, corn
Summary of the method: as §1

Structure (SMILES)	damage to plant (100=total damage; 0=no damage) SETFA ([1]; Post-Emergence at 15.625 g/ha)	damage to plant (100=total damage; 0=no damage) SETFA ([1]; Post-Emergence at 62.5 g/ha)	damage to plant (100=total damage; 0=no damage) AMARE ([2]; Pre-Emergence at 15.625 g/ha)	damage to plant (100=total damage; 0=no damage) AMARE ([2]; Pre-Emergence at 62.5 g/ha)	damage to plant (100=total damage; 0=no damage) ECHCG ([3]; Post-Emergence at 15.625 g/ha)	damage to plant (100=total damage; 0=no damage) ECHCG ([3]; Post-Emergence at 62.5 g/ha)	damage to plant (100=total damage; 0=no damage) ECHCG ([4]; Pre-Emergence at 15.625 g/ha)	damage to plant (100=total damage; 0=no damage) ECHCG ([4]; Pre-Emergence at 62.5 g/ha)	damage to plant (100=total damage; 0=no damage) ZEAMX ([5]; Pre-Emergence at 15.625 g/ha)	damage to plant (100=total damage; 0=no damage) ZEAMX ([5]; Pre-Emergence at 62.5 g/ha)	damage to plant (100=total damage; 0=no damage) ABUTH ([6]; Pre-Emergence at 15.625 g/ha)	damage to plant (100=total damage; 0=no damage) ABUTH ([6]; Pre-Emergence at 62.5 g/ha)	damage to plant (100=total damage; 0=no damage) IPOHE ([7]; Pre-Emergence at 15.625 g/ha)	damage to plant (100=total damage; 0=no damage) IPOHE ([7]; Pre-Emergence at 62.5 g/ha)	damage to plant (100=total damage; 0=no damage) IPOHE ([8]; Post-Emergence at 15.625 g/ha)	damage to plant (100=total damage; 0=no damage) IPOHE ([8]; Post-Emergence at 62.5 g/ha)	damage to plant (100=total damage; 0=no damage) SETFA ([9]; Pre-Emergence at 15.625 g/ha)	damage to plant (100=total damage; 0=no damage) SETFA ([9]; Pre-Emergence at 62.5 g/ha)	damage to plant (100=total damage; 0=no damage) AMARE ([10]; Post-Emergence at 15.625 g/ha)	damage to plant (100=total damage; 0=no damage) AMARE ([10]; Post-Emergence at 62.5 g/ha)	also measured
Cn1nc([C@H]2CNC(=O)[C@@H]2C(=O)Nc2cccc(F)n2)cc1C(C)(C)C [Compound 1]	0	0	0	0	0	0	0	0	0	0	0	0	0	0	0	0	0	0	0	0	damage to plant (100=total damage; 0=no damage) ABUTH ([11]; Post-Emergence at 15.625 g/ha): 0; damage to plant (100=total damage; 0=no damage) ABUTH ([11]; Post-Emergence at 62.5 g/ha): 0; damage to plant (100=total damage; 0=no damage) ZEAMX ([12]; Post-Emergence at 15.625 g/ha): 0; damage to plant (100=total damage; 0=no damage) ZEAMX ([12]; Post-Emergence at 62.5 g/ha): 0
CN1C[C@H](c2nn(C)c3c(Cl)cccc23)[C@@H](C(=O)Nc2cccc(F)c2F)C1=O [Compound 5]	10	50	0	0	0	60	0	20	0	0	0	0	0	0	0	0	0	30	0	0	damage to plant (100=total damage; 0=no damage) SETFA ([1]; Post-Emergence at 250 g/ha): 80; damage to plant (100=total damage; 0=no damage) AMARE ([2]; Pre-Emergence at 250 g/ha): 30; damage to plant (100=total damage; 0=no damage) ECHCG ([3]; Post-Emergence at 250 g/ha): 80; damage to plant (100=total damage; 0=no damage) ECHCG ([4]; Pre-Emergence at 250 g/ha): 80; damage to plant (100=total damage; 0=no damage) ZEAMX ([5]; Pre-Emergence at 250 g/ha): 0; damage to plant (100=total damage; 0=no damage) ABUTH ([6]; Pre-Emergence at 250 g/ha): 10; damage to plant (100=total damage; 0=no damage) IPOHE ([7]; Pre-Emergence at 250 g/ha): 0; damage to plant (100=total damage; 0=no damage) IPOHE ([8]; Post-Emergence at 250 g/ha): 0; damage to plant (100=total damage; 0=no damage) SETFA ([9]; Pre-Emergence at 250 g/ha): 80; damage to plant (100=total damage; 0=no damage) AMARE ([10]; Post-Emergence at 250 g/ha): 0; damage to plant (100=total damage; 0=no damage) ABUTH ([11]; Post-Emergence at 15.625 g/ha): 0; damage to plant (100=total damage; 0=no damage) ABUTH ([11]; Post-Emergence at 62.5 g/ha): 0; damage to plant (100=total damage; 0=no damage) ABUTH ([11]; Post-Emergence at 250 g/ha): 0; damage to plant (100=total damage; 0=no damage) ZEAMX ([12]; Post-Emergence at 15.625 g/ha): 0; damage to plant (100=total damage; 0=no damage) ZEAMX ([12]; Post-Emergence at 62.5 g/ha): 0; damage to plant (100=total damage; 0=no damage) ZEAMX ([12]; Post-Emergence at 250 g/ha): 0

— patent US20220281848A1, “PYRAZOLE-SUBSTITUTED PYRROLIDINONES AS HERBICIDES” (FMC Corporation, priority 2019, published 2022)
